# Results taken from patent US8299111B2, “Compounds which modulate the CB2 receptor” (Boehringer Ingelheim International GmbH, priority 2006, dated 2012).
# Target: T1, human CB2R (Homo sapiens, UniProt P34972)
# T1 construct: host or cells: CHO cells
# Assay: CB2R mediated modulation of cAMP synthesis
# Format: cell-based
# Details: found through the use of the above described assays (binding and cAMP); CHO cells expressing human CB2R, forskolin-stimulated cAMP
# Method in brief: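 EC50 values reflect inhibition of cAMP made in response to 10 uM forskolin (with 1 mM IBMX, 0.25% BSA) over 30 min at 37 °C in human CB2R-expressing CHO cells. The window runs from forskolin alone to 1 uM CP55940; curves fitted with a four-parameter logistic model.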
# T1 sequence (P34972 whole entry): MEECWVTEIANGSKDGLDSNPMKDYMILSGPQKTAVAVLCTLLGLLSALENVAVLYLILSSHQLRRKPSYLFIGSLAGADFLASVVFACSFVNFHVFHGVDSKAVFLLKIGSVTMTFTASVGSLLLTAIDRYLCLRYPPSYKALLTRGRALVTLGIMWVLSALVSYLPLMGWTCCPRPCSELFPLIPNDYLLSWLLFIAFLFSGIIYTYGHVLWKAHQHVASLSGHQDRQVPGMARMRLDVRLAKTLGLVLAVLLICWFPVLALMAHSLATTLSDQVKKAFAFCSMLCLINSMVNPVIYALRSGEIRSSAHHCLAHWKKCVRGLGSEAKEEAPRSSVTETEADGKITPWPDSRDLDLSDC
row,SMILES,agonistic activity
1,Cc1ccc(S(=O)(=O)C(C)(C)C(=O)Nc2cc(C(C)(C)C)no2)cc1F [N-(3-tert-Butyl-isoxazol-5-yl)-2-(3-fluoro-4-methyl-benzenesulfonyl)-2-methyl-propionamide],agonistic activity
2,"CC(C)(C(=O)Nc1nsc(-c2ccccc2)n1)S(=O)(=O)c1ccc(Cl)cc1 [2-(4-Chloro-benzenesulfonyl)-2-methyl-N-(5-phenyl-[1,2,4]thiadiazol-3-yl)-propionamide]",agonistic activity
3,CC(C)(C)c1csc(NC(=O)C(C)(C)S(=O)(=O)c2cccc(C(F)(F)F)c2)n1 [N-(4-tert-Butyl-thiazol-2-yl)-2-methyl-2-(3-trifluoromethyl-benzenesulfonyl)-propionamide],agonistic activity
4,CC(C)(C)c1cc(NC(=O)C(C)(C)S(=O)(=O)c2ccc3ccccc3c2)no1 [N-(5-tert-Butyl-isoxazol-3-yl)-2-methyl-2-(naphthalene-2-sulfonyl)-propionamide],agonistic activity
5,Cn1nc(C(C)(C)C)cc1NC(=O)C(C)(C)S(=O)(=O)c1ccc(Cl)cc1 [N-(5-tert-Butyl-2-methyl-2H-pyrazol-3-yl)-2-(4-chloro-benzenesulfonyl)-2-methyl-propionamide],agonistic activity
6,CC(C)(C(=O)Nc1nc(-c2ccccc2)co1)S(=O)(=O)c1ccc(Cl)cc1 [2-(4-Chloro-benzenesulfonyl)-2-methyl-N-(4-phenyl-oxazol-2-yl)-propionamide],agonistic activity
7,CC(C)C(C(=O)Nc1cc(C(C)(C)C)on1)S(=O)(=O)c1ccc(C(F)(F)F)cn1 (stereo not shown) [N-(5-tert-Butyl-isoxazol-3-yl)-3-methyl-2-(5-trifluoromethyl-pyridine-2-sulfonyl)-butyramide],agonistic activity
8,CC(C)(C)c1cc(NC(=O)C(C)(C)S(=O)(=O)c2ccc(C(F)(F)F)nc2)on1 [N-(3-tert-butylisoxazol-5-yl)-2-methyl-2-{[6-(trifluoromethyl)pyridin-3-yl]sulfonyl}propanamide],agonistic activity
9,Cn1nc(C2CCCCC2)cc1NC(=O)C(C)(C)S(=O)(=O)c1ccc(Cl)cc1 [2-(4-Chloro-benzenesulfonyl)-N-(5-cyclohexyl-2-methyl-2H-pyrazol-3-yl)-2-methyl-propionamide],agonistic activity
10,"CC(C)(C)c1csc(NC(=O)C(C)(C)S(=O)(=O)c2ccc(Cl)cc2Cl)n1 [N-(4-tert-Butyl-thiazol-2-yl)-2-(2,4-dichloro-benzenesulfonyl)-2-methyl-propionamide]",agonistic activity
11,CC(C)(C(=O)Nc1cc(-c2ccccc2)on1)S(=O)(=O)c1ccc(Cl)cc1 [2-(4-Chloro-benzenesulfonyl)-2-methyl-N-(5-phenyl-isoxazol-3-yl)-propionamide],agonistic activity
12,CC(C)(C(=O)Nc1cccc(C(F)(F)F)c1)S(=O)(=O)c1ccc(Cl)cc1 [2-(4-Chloro-benzenesulfonyl)-2-methyl-N-(3-trifluoromethyl-phenyl)-propionamide],agonistic activity
13,CC(C)(C(=O)Nc1cc(C(F)(F)F)ccn1)S(=O)(=O)c1ccc(Cl)cc1 [2-(4-Chloro-benzenesulfonyl)-2-methyl-N-(4-trifluoromethyl-pyridin-2-yl)-propionamide],agonistic activity
14,CC(C)(C)c1csc(NC(=O)C(C)(C)S(=O)(=O)c2ccc(C(F)(F)F)cc2)n1 [N-(4-tert-Butyl-thiazol-2-yl)-2-methyl-2-(4-trifluoromethyl-benzenesulfonyl)-propionamide],agonistic activity

# Other lines, results leading:
row,agonistic activity,SMILES
1,agonistic activity,Cc1cccc(NC(=O)C(C)(C)S(=O)(=O)c2ccc(Cl)cc2)n1 [2-(4-Chloro-benzenesulfonyl)-2-methyl-N-(6-methyl-pyridin-2-yl)-propionamide]
2,agonistic activity,Cn1nc(-c2ccccc2)cc1NC(=O)C(C)(C)S(=O)(=O)c1ccc(S(C)(=O)=O)cc1 [2-methyl-N-(1-methyl-3-phenyl-1H-pyrazol-5-yl)-2-{[4-(methylsulfonyl)phenyl]sulfonyl}propanamide]
3,agonistic activity,"CC(C)(C)c1csc(NC(=O)C(C)(C)S(=O)(=O)c2ccc(Cl)c(Cl)c2)n1 [N-(4-tert-Butyl-thiazol-2-yl)-2-(3,4-dichloro-benzenesulfonyl)-2-methyl-propionamide]"
4,agonistic activity,"CC(C)(C)c1cc(NC(=O)C(C)(C)S(=O)(=O)c2cc(F)ccc2F)no1 [N-(5-tert-Butyl-isoxazol-3-yl)-2-(2,5-difluoro-benzenesulfonyl)-2-methyl-propionamide]"
5,agonistic activity,"Cn1nc(C(C)(C)C)cc1NC(=O)C(C)(C)S(=O)(=O)c1cc(F)ccc1F [N-(5-tert-Butyl-2-methyl-2H-pyrazol-3-yl)-2-(2,5-difluoro-benzenesulfonyl)-2-methyl-propionamide]"
6,agonistic activity,COc1ccc(S(=O)(=O)C(C)(C)C(=O)Nc2cccc(C(F)(F)F)n2)cc1 [2-[(4-methoxyphenyl)sulfonyl]-2-methyl-N-[6-(trifluoromethyl)pyridin-2-yl]propanamide]
7,agonistic activity,CC(C)(C)c1cc(NC(=O)C(C)(C)S(=O)(=O)c2ccccc2F)no1 [N-(5-tert-Butyl-isoxazol-3-yl)-2-(2-fluoro-benzenesulfonyl)-2-methyl-propionamide]
8,agonistic activity,Cc1ccc(S(=O)(=O)C(C)(C)C(=O)Nc2nc(C(C)(C)C)cs2)cc1 [N-(4-tert-Butyl-thiazol-2-yl)-2-methyl-2-(toluene-4-sulfonyl)-propionamide]
9,agonistic activity,Cc1sc(NC(=O)C(C)(C)S(=O)(=O)c2ccc(Cl)cc2)nc1C(C)(C)C [N-(4-tert-Butyl-5-methyl-thiazol-2-yl)-2-(4-chloro-benzenesulfonyl)-2-methyl-propionamide]
10,agonistic activity,"CC(C)(C(=O)Nc1nc(-c2ccc(Cl)cc2)cs1)S(=O)(=O)c1ccc(S(C)(=O)=O)cc1 [N-[4-(4-chlorophenyl)-1,3-thiazol-2-yl]-2-methyl-2-{[4-(methylsulfonyl)phenyl]sulfonyl}propanamide]"
11,agonistic activity,Cn1nc(C(C)(C)C)cc1NC(=O)C(C)(C)S(=O)(=O)c1ccc(C#N)cc1 [N-(5-tert-Butyl-2-methyl-2H-pyrazol-3-yl)-2-(4-cyano-benzenesulfonyl)-2-methyl-propionamide]
12,agonistic activity,Cc1ccc(S(=O)(=O)C(C)(C)C(=O)Nc2cc(C(C)(C)C)on2)cc1F [N-(5-tert-Butyl-isoxazol-3-yl)-2-(3-fluoro-4-methyl-benzenesulfonyl)-2-methyl-propionamide]
13,agonistic activity,CC(C)(C)c1csc(NC(=O)C(C)(C)S(=O)(=O)c2ccccc2)n1 [2-Benzenesulfonyl-N-(4-tert-butyl-thiazol-2-yl)-2-methyl-propionamide]
14,agonistic activity,CC(C)(C)c1cc(NC(=O)CS(=O)(=O)c2ccc(C(F)(F)F)cc2)no1 [N-(5-tert-Butyl-isoxazol-3-yl)-2-(4-trifluoromethyl-benzenesulfonyl)-acetamide]
